According to article PMC9664868, “Dephospho-Coenzyme A Kinase Is an Exploitable Drug Target against Plasmodium falciparum: Identification of Selective Inhibitors by High-Throughput Screening of a Large Chemical Compound Library” (Antimicrobial Agents and Chemotherapy, 2022):
Like-named read-outs stand apart in the source and are kept apart here.

Legend:
[1] = target: PfDPCK (Plasmodium falciparum, UniProt Q8IL34); assay: PfDPCK inhibition, enzyme-coupled fluorescence ADP detection assay (HTS and IC50 determination); assay type: biochemical
Procedure: High-throughput screening against recombinant PfDPCK was performed using the Drug Discovery Initiative (DDI) full library, available from The University of Tokyo, composed of approximately 210,000 compounds. The primary assay was performed on 1,536-well white plate format with a final volume of 2 μL/well, containing 10 μM test compounds using a Multidrop Combi reagent dispenser (Thermo Fisher Scientific, Waltham, MA). The reaction was conducted in the assay buffer described above with 100 μM ATP and 50 μM dephospho-CoA. The assay was carried out at room temperature for 4 h in a closed plastic container with wet tissues. The reaction was stopped, and produced ADP was quantified using an enzyme-coupled fluorescence ADP detection assay, using PHERAstar microplate reader (BMG Labtech, Offenburg, Germany) with excitation at 540 nm and emission at 590 nm, as previously described ([17]). The inhibition level was calculated as the percentage inhibition of DPCK activity with each compound compared to the activity with only dimethyl sulfoxide (DMSO) as control (no inhibition) and that with no enzyme as 100% inhibition. IC50 values of the hit compounds were determined under the same assay conditions for the screening: Z′ factor, signal-to-background ratio (S/B), signal-to-noise ratio (S/N), and coefficient of variation (CV) were calculated to estimate the quality of screening system as previously described ([18], [38]).
The primary hits were reassayed in quadruplicate (n = 4) as in the primary screening. We next tested the confirmed secondary hits to exclude false positives that inhibit coupled fluorescence assay, but not PfDPCK. After exclusion of false positives, all tertiary hits were tested against human HsCOASY in the counterassay to exclude compounds that inhibit both PfDPCK and HsCOASY. The compounds showing >10% inhibition against HsCOASY were excluded from further studies. The IC50 values of the hit compounds were determined under the same assay conditions described as above for the primary screening, with the serially diluted compounds at 20, 10, 2.5, 0.5, and 0.1 μM at final concentrations. The assay was conducted in quadruplicate for each dilution, and IC50 values were calculated using GraphPad Software (San Diego, California USA).

[2] = system: P. falciparum drug-sensitive 3D7 strain; assay: Erythrocytic-stage parasite growth inhibition, diaphorase-coupled LDH assay, 3D7; assay type: cell-based, Plasmodium falciparum; details: for Selectivity index IC50 (HepG2/3D7): HepG2 IC50 / 3D7 IC50
Procedure: (§1) Selected hit compounds were also tested against erythrocytic-stage parasites of P. falciparum drug-sensitive 3D7 and drug-resistant Dd2 strains ([39]). For the phenotypic assay, parasite cultures were synchronized with 5% (wt/vol) D-sorbitol as previously described ([40]). A synchronized culture containing ring-stage parasites of 0.3% parasitemia was initiated with a culture volume of 25 μL/well on a 384-well plate. A series of diluted compounds (at final concentrations of 50, 10, 2, 0.4, and 0.08 μM) were used to calculate IC50 values. Mefloquine at 50 μM and atovaquone at 20 μM were used as no-growth control (100% inhibition). After 72 h of incubation, parasite growth was measured by diaphorase-coupled lactate dehydrogenase (LDH) assay as previously described ([41]). Absorbance at 650 nm was measured using SpectraMax Paradigm multimode microplate reader (Molecular Devices, San Jose, CA, USA). The IC50 values were calculated as described above.

[3] = system: P. falciparum drug-resistant Dd2 strain; assay: Erythrocytic-stage parasite growth inhibition, diaphorase-coupled LDH assay, Dd2; assay type: cell-based, Plasmodium falciparum
Procedure: as §1

[4] = system: HepG2 cell line; assay: Cytotoxicity assay (Cell Counting Kit-8); assay type: cell-based, human
Procedure: Cytotoxicity against human cells was evaluated using the human liver carcinoma HepG2 cell line. HepG2 cells were cultured in D-MED supplemented with 4 mM L-glutamine and 10% fetal bovine serum (FBS) in a 75-cm^2 flask (Violamo) at 37°C. For the cytotoxicity assay, HepG2 cells in semiconfluent state were detached from the flask by incubating the cells with 5 mL D-MEM containing 0.25% trypsin-EDTA. After detachment, HepG2 cells were resuspended in D-MEM-supplemented L-glutamine and FBS, and cell viability was evaluated by incubating cells with 0.4% Trypan blue on a hemocytometer. An approximately 50-μL suspension containing 3,000 cells was dispensed into each well on a 384-well clear-bottom plate using a Multidrop Combi dispenser. Compounds dissolved in DMSO had been dispensed into wells to yield final concentrations of 100, 20, 4, 0.8, and 0.2 μM before cells were added. After cells were added to the plates, they were cultured at 37°C under 5% CO2. After 48 h cultivation, 5 μL of Cell Counting Kit-8 (Dojindo, Japan) was added, and the plates were further incubated for 2 h to assess cell growth and survival.

[5] = recombinant enzyme, means ± SEMs, read-out: IC50 (μM) of: PfDPCK
[6] = Plasmodium falciparum, drug-sensitive 3D7, 72 h, means ± SEMs, read-out: IC50 (μM) of: Pf cell 3D7
[7] = Plasmodium falciparum, drug-resistant Dd2, 72 h, means ± SEMs, read-out: IC50 (μM) of: Pf cell Dd2
[8] = Homo sapiens, HepG2, ND (maximum concentration tested 100 μM), read-out: IC50 (μM) of: HepG2
[9] = Homo sapiens, HepG2, 48 h, means ± SEMs, read-out: IC50 (μM) of: HepG2
[10] = Plasmodium falciparum, 3D7, 72 h, read-out: IC50 (μM) of: Pf cell 3D7
[11] = Plasmodium falciparum, DD2, 72 h, read-out: IC50 (μM) of: Pf cell Dd2
[12] = Homo sapiens, HepG2, read-out: IC50 (μM) of: HepG2

Chain of PfDPCK (Q8IL34 entry or part of it): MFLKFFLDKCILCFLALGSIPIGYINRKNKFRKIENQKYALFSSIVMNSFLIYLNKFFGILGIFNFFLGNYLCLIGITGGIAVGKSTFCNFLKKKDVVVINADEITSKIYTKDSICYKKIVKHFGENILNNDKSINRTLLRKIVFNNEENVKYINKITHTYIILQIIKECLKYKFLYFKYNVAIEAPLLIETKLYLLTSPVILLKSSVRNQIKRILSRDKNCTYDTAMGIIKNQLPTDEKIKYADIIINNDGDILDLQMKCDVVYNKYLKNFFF

Row | Compound | IC50 [1, 5] [µM] | IC50 [2, 6] [µM] | IC50 [3, 7] [µM] | IC50 [4, 8] [µM] | Selectivity index IC50 (HepG2/3D7) [2] | Selectivity index IC50 (HepG2/Dd2) [3] | IC50 [4, 9] [µM] | also measured
1 | CCCn1c(C)cc(-c2csc(NC(=O)C3CC3)n2)c1C [Compound A-4] | 0.52 ± 0.09 | 4.45 ± 0.05 | 1.59 ± 0.23 | > 100 | – | – | – | –
2 | Cc1ccc(-c2nnc(Nc3ccc(O)cc3)c3ccccc23)cc1S(=O)(=O)NCCO [Compound A-26] | 3.5 ± 0.04 | 14.45 ± 0.08 | 3.41 ± 1.22 | > 100 | – | – | – | –
3 | OC(c1cc(C(F)(F)F)nc2c(C(F)(F)F)cccc12)C1CCCCN1 (stereo not shown) [Mefloquine, reference compound] | – | 0.013 ± 0.006 | 0.19 ± 0.07 | – | 133 | 8.8 | 1.73 ± 0.7 | –
4 | S=C(NCCc1ccccc1)NNc1nc2ccccc2[nH]1 [Compound A-65] | 9.21 ± 0.12 | 4.4 ± 0.05 | 0.36 ± 0.1 | > 100 | – | – | – | –
5 | Cc1cc(Nc2cc3ccccc3cc2O)n2ncnc2n1 [Compound A-25] | 3.45 ± 0.07 | 1.64 ± 0.03 | > 50 | > 100 | – | – | – | –
6 | Cc1ccc(S(=O)(=O)Nc2cc(Cl)c(O)c3ccccc23)c(C)c1 [Compound A-16] | 2.09 ± 0.04 | 2.21 ± 0.07 | 0.23 ± 0.01 | – | 17.9 | 171.7 | 39.6 ± 2.3 | –
7 | CC1(C)NC(C(=O)O)C23c4c5c6c7c8c9c(c%10c%11c2c2c4c4c%12c5c5c6c6c8c8c%13c9c9c%10c%10c%11c%11c2c2c4c4c%12c%12c5c5c6c8c6c8c%13c9c9c%10c%10c%11c2c2c4c4c%12c5c6c5c8c9c%10c2c45)C713 (stereo not shown) [Compound A-31] | – | – | – | – | – | – | – | IC50 [1]: 3.83 ± 0.04 µM; IC50 [2, 10]: > 50 µM; IC50 [3, 11]: 0.67 ± 0.02 µM; IC50 [4, 12]: > 100 µM
8 | CCNC(=N)SCc1c(C)c(C)c(C)c(C)c1C [Compound A-7] | 1.09 ± 0.03 | 1.1 ± 0.11 | 0.13 ± 0.01 | – | 8.2 | 69.5 | 9.04 ± 0.01 | –
9 | Nc1nc(Nc2cccc(F)c2)nc2ccccc12 [Compound A-13] | 1.69 ± 0.05 | 1.3 ± 0.06 | 3.4 ± 0.35 | > 100 | – | – | – | –
10 | O=C1NC(=O)/C(=C/c2ccc(C(=O)Nc3ccc(O)cc3C(=O)O)cc2)S1 [Compound A-60] | 8.35 ± 0.05 | 34.14 ± 0.04 | 5.53 ± 0.95 | > 100 | – | – | – | –
11 | CCOC(=O)CN1C(C(=O)OCC)C23c4c5c6c7c8c9c(c%10c%11c2c2c4c4c%12c5c5c6c6c8c8c%13c9c9c%10c%10c%11c%11c2c2c4c4c%12c%12c5c5c6c8c6c8c%13c9c9c%10c%10c%11c2c2c4c4c%12c5c6c5c8c9c%10c2c45)C73C1c1cc[n+](C)cc1 (stereo not shown) [Compound A-23] | – | – | – | – | – | – | – | IC50 [1]: 3.31 ± 0.02 µM; IC50 ([2]; drug-sensitive 3D7, 72 h, means ± SEMs, read-out: IC50 (μM) of: Pf cell 3D7): 4.47 ± 0.12 µM; IC50 ([3]; drug-resistant Dd2, 72 h, means ± SEMs, read-out: IC50 (μM) of: Pf cell Dd2): 7.42 ± 0.46 µM; IC50 ([4]; ND (maximum concentration tested 100 μM), read-out: IC50 (μM) of: HepG2): > 100 µM
12 | O=Cc1cc(C23CC4CC(CC(C4)C2)C3)cc([N+](=O)[O-])c1O [Compound A-63] | 8.69 ± 0.01 | 6.04 ± 0.05 | 0.7 ± 0.22 | – | >16.6 | >142.8 | > 100 | –
13 | COc1ccc(NC(C)=O)cc1/N=C/c1cc(Br)cc(Br)c1O [Compound A-38] | 4.87 ± 0.05 | 29.06 ± 0.2 | 0.7 ± 0.1 | – | >3.4 | >142.8 | > 100 | –
14 | O=C(O)C1NC(c2ccncc2)C23c4c5c6c7c8c9c(c%10c%11c2c2c4c4c%12c5c5c6c6c8c8c%13c9c9c%10c%10c%11c%11c2c2c4c4c%12c%12c5c5c6c8c6c8c%13c9c9c%10c%10c%11c2c2c4c4c%12c5c6c5c8c9c%10c2c45)C713 (stereo not shown) [Compound A-45] | – | – | – | – | – | – | – | IC50 [1]: 6.68 ± 0.24 µM; IC50 [2, 10]: 15.6 ± 0.61 µM; IC50 [3, 11]: 1.29 ± 0.02 µM; IC50 [4, 12]: > 100 µM
15 | CCN(CC)CCn1c(=N)n(CC(=O)c2cc(C(C)(C)C)c(O)c(C(C)(C)C)c2)c2ccccc21 [Compound A-30] | 3.83 ± 0.03 | 0.08 ± 0.01 | 0.09 ± 0.06 | – | 45.1 | 43.5 | 3.75 ± 3.55 | –
16 | CCOC(=O)C1NC(c2ccc[n+](C)c2)C23c4c5c6c7c8c9c(c%10c%11c2c2c4c4c%12c5c5c6c6c8c8c%13c9c9c%10c%10c%11c%11c2c2c4c4c%12c%12c5c5c6c8c6c8c%13c9c9c%10c%10c%11c2c2c4c4c%12c5c6c5c8c9c%10c2c45)C713 (stereo not shown) [Compound A-22] | – | – | – | – | – | – | – | IC50 [1]: 3.25 ± 0.02 µM; IC50 [2, 10]: 30.6 ± 1.5 µM; IC50 [3, 11]: 6.32 ± 0.35 µM; IC50 [4, 12]: > 100 µM
17 | COC(C(=O)N/N=C/c1ccccc1)c1ccccc1 (stereo not shown) [Compound A-50] | 6.99 ± 0.13 | > 50 | 6.62 ± 1.12 | > 100 | – | – | – | –
18 | O=C1C(O)=C([C@H]2CC[C@H](c3ccc(Cl)cc3)CC2)C(=O)c2ccccc21 [Atovaquone, reference compound] | – | – | – | – | 363,181 | 499,375 | 79.9 ± 1.79 | IC50 ([2]; Plasmodium falciparum, drug-sensitive 3D7, value in nM, read-out: IC50 of: Pf cell 3D7): 0.00022 ± 3e-05 µM; IC50 ([3]; Plasmodium falciparum, drug-resistant Dd2, value in nM, read-out: IC50 of: Pf cell Dd2): 0.00016 ± 2.8e-05 µM
19 | Cc1cc(-c2csc(NC3CC3)n2)c(C)n1CCC1=CCCCC1 [Compound A-19] | 2.55 ± 0.03 | 3.64 ± 0.04 | 2.65 ± 0.13 | – | 22.4 | 30.8 | 81.5 | –
20 | Cc1cn2c(/C=C3\C(=O)N(C)c4ccccc43)c(C)nc2s1 [Compound A-51] | 7.05 ± 0.08 | 15.76 ± 0.12 | 0.62 ± 0.23 | – | >6.3 | >166.6 | > 100 | –
21 | CNc1nc(NC(C)(C)C)nc(NC(C)(C)C)n1 [Compound A-2] | 0.4 ± 0.07 | 4.43 ± 0.04 | 0.98 ± 0.5 | – | >23 | >102 | > 100 | –
22 | Cc1cc(-c2csc(N3CCCC3)n2)c(C)n1-c1c(C)n(C)n(-c2ccccc2)c1=O [Compound A-44] | 6.33 ± 0.11 | 3.96 ± 0.04 | 1.75 ± 0.05 | > 100 | – | – | – | –
23 | Cc1cc(-c2csc(-c3ccsc3)n2)c(C)n1CCCCCC(=O)O [Compound A-96] | – | – | – | – | – | – | – | IC50 ([1]; Table 2, PfDPCK inhibitor scaffolds Gr4, Gr5, Gr8, read-out: IC50): 14.7 ± 0.28 µM; IC50 ([2]; Plasmodium falciparum, 3D7, Table S1, means ± SEM, read-out: IC50 (μM) Pf cell 3D7): 31 ± 2.1 µM; IC50 ([3]; Plasmodium falciparum, DD2, Table S1, means ± SEM, read-out: IC50 (μM) Pf cell Dd2): 27.7 ± 2.6 µM
